Test results taken from ChEMBL document CHEMBL4613212, “Insights of synthetic analogues of anti-leprosy agents” (Bioorg Med Chem, 2019).
Converted amounts (≈) assume the structure as drawn.

How the values were obtained:
Mycobacterium leprae [1] = test: Anti-leprotic activity against Mycobacterium leprae infected in BALB/c weanling mouse assessed as bacteria killing at 20 mg/kg, ip administrated for 60 days and measured after 1 year by most probable number technique analysis relative to control; type: functional
Mycobacterium leprae [2] = test: Anti-leprotic activity against Mycobacterium leprae infected in BALB/c weanling mouse assessed as bacteria killing at 20 mg/kg, ip administrated for 60 days and measured after 1 year by Spearman-Karber technique analysis relative to control; type: functional
[3] = Cytotoxicity against LPS-induced human monocytes assessed as cell viability at 0.5 uM by tryphan blue staining based assay relative to control; parameters: species or system Monocyte; conditions: read-out: Activity
[4] = Cytotoxicity against LPS-induced human monocytes assessed as cell viability at 5 uM by tryphan blue staining based assay relative to control; parameters: species or system Monocyte; conditions: read-out: Activity
Monocyte [5] = test: Antiinflammatory activity in human monocytes assessed as inhibition of LPS-induced TNFaplha production at 5 uM preincubated for 15 mins followed by LPS addition and measured after 4 hrs by ELISA relative to control; type: functional
Monocyte [6] = test: Antiinflammatory activity in human monocytes assessed as inhibition of LPS-induced TNFaplha production at 25 uM preincubated for 15 mins followed by LPS addition and measured after 4 hrs by ELISA relative to control; type: functional
Monocyte [7] = test: Antiinflammatory activity in human monocytes assessed as inhibition of LPS-induced TNFaplha production at 50 uM preincubated for 15 mins followed by LPS addition and measured after 4 hrs by ELISA relative to control; type: functional
Monocyte [8] = test: Antiinflammatory activity in human monocytes assessed as inhibition of LPS-induced TNFaplha production at 0.5 uM preincubated for 15 mins followed by LPS addition and measured after 4 hrs by ELISA relative to control; type: functional
[9] = Cytotoxicity against LPS-induced human monocytes assessed as cell viability at 25 uM by tryphan blue staining based assay relative to control; parameters: species or system Monocyte; conditions: read-out: Activity
[10] = Cytotoxicity against LPS-induced human monocytes assessed as cell viability at 50 uM by tryphan blue staining based assay relative to control; parameters: species or system Monocyte; conditions: read-out: Activity
Mycobacterium leprae [11] = test: Anti-leprotic activity against Mycobacterium leprae infected in BALB/c mouse assessed as time delay in bacterial multiplication in footpad at 0.01 g/100g of diet administered via feed starting 60 or 75 day post infection up to 90 days by Shepard's kinetic method; type: functional
[12] = system: Mycolicibacterium smegmatis; test: Antimycobacterial activity against DDS resistant Mycobacterium smegmatis ATCC 607 […]; type: functional
[13] = system: Mycolicibacterium smegmatis; test: Antimycobacterial activity against DDS sensitive Mycobacterium smegmatis ATCC 607 […]; type: functional
Mycobacterium leprae [14] = test: Anti-leprotic activity against rifampicin-susceptible Mycobacterium leprae primary cultures at 4 weeks assessed as ATP level per 10^7 cells at 0.3 mg/L measured by bioluminescence assay (reference value: 332 +/- 46 pg); type: functional
Mycobacterium leprae [15] = test: Anti-leprotic activity against rifampicin-susceptible Mycobacterium leprae primary cultures at 4 weeks assessed as ATP level per 10^7 cells at 0.2 mg/L measured by bioluminescence assay (reference value: 332 +/- 46 pg); type: functional
Mycobacterium leprae [16] = test: Anti-leprotic activity against rifampicin-susceptible Mycobacterium leprae subcultures at 4 weeks assessed as [3H]thymidine uptake per 5 times 10^7 cells at 0.3 mg/L incubated for 24 hrs (reference value: 1.41 +/- 0.20 pmol); type: functional
Mycobacterium leprae [17] = test: Anti-leprotic activity against rifampicin-susceptible Mycobacterium leprae subcultures at 4 weeks assessed as ATP level per 10^7 cells at 0.3 mg/L measured by bioluminescence assay (reference value: 425 +/- 64 pg); type: functional
Mycobacterium leprae [18] = test: Anti-leprotic activity against rifampicin-susceptible Mycobacterium leprae subcultures at 4 weeks assessed as ATP level per 10^7 cells at 0.2 mg/L measured by bioluminescence assay (reference value: 425 +/- 64 pg); type: functional
Mycobacterium leprae [19] = test: Anti-leprotic activity against rifampicin-susceptible Mycobacterium leprae subcultures at 4 weeks assessed as [3H]thymidine uptake per 5 times 10^7 cells at 0.2 mg/L incubated for 24 hrs (reference value: 1.41 +/- 0.20 pmol); type: functional
Mycobacterium leprae [20] = test: Anti-leprotic activity against rifampicin-susceptible Mycobacterium leprae primary cultures at 4 weeks assessed as ATP level per 10^7 cells at 0.1 mg/L measured by bioluminescence assay (reference value: 332 +/- 46 pg); type: functional
Mycobacterium leprae [21] = test: Anti-leprotic activity against rifampicin-susceptible Mycobacterium leprae subcultures at 4 weeks assessed as [3H]thymidine uptake per 5 times 10^7 cells at 0.1 mg/L incubated for 24 hrs (reference value: 1.41 +/- 0.20 pmol); type: functional
Mycobacterium leprae [22] = test: Anti-leprotic activity against rifampicin-susceptible Mycobacterium leprae primary cultures at 4 weeks assessed as [3H]thymidine uptake per 5 times 10^7 cells at 0.1 mg/L incubated for 24 hrs (reference value: 1.05 +/- 0.16 pmol); type: functional
Mycobacterium leprae [23] = test: Anti-leprotic activity against rifampicin-susceptible Mycobacterium leprae subcultures at 4 weeks assessed as [3H]thymidine uptake per 5 times 10^7 cells at 0.4 mg/L incubated for 24 hrs (reference value: 1.41 +/- 0.20 pmol); type: functional
Mycobacterium leprae [24] = test: Anti-leprotic activity against rifampicin-susceptible Mycobacterium leprae subcultures at 4 weeks assessed as ATP level per 10^7 cells at 0.4 mg/L measured by bioluminescence assay (reference value: 425 +/- 64 pg); type: functional
Mycobacterium leprae [25] = test: Anti-leprotic activity against rifampicin-susceptible Mycobacterium leprae primary cultures at 4 weeks assessed as ATP level per 10^7 cells at 0.4 mg/L measured by bioluminescence assay (reference value: 332 +/- 46 pg); type: functional
Mycobacterium leprae [26] = test: Anti-leprotic activity against rifampicin-susceptible Mycobacterium leprae subcultures at 4 weeks assessed as ATP level per 10^7 cells at 0.1 mg/L measured by bioluminescence assay (reference value: 425 +/- 64 pg); type: functional
Mycobacterium leprae [27] = test: Anti-leprotic activity against rifampicin-susceptible Mycobacterium leprae primary cultures at 4 weeks assessed as [3H]thymidine uptake per 5 times 10^7 cells at 0.3 mg/L incubated for 24 hrs (reference value: 1.05 +/- 0.16 pmol); type: functional
Mycobacterium leprae [28] = test: Anti-leprotic activity against rifampicin-susceptible Mycobacterium leprae primary cultures at 4 weeks assessed as [3H]thymidine uptake per 5 times 10^7 cells at 0.4 mg/L incubated for 24 hrs (reference value: 1.05 +/- 0.16 pmol); type: functional
Mycobacterium leprae [29] = test: Anti-leprotic activity against rifampicin-susceptible Mycobacterium leprae primary cultures at 4 weeks assessed as [3H]thymidine uptake per 5 times 10^7 cells at 0.2 mg/L incubated for 24 hrs (reference value: 1.05 +/- 0.16 pmol); type: functional

Which results are given for GENTAMICIN?
Activity (Mycobacterium leprae [1]): 58.5%; Activity (Mycobacterium leprae [2]): 60%

What does the source list for `NC[C@H]1O[C@H](O[C@H]2[C@H](O)[C@@H](O[C@H]3O[C@H](CO)[C@@H](O)[C@H](N)[C@H]3O)[C@H](N)C[C@@H]2N)[C@H](N)C[C@@H]1O` [TOBRAMYCIN]?
Activity (Mycobacterium leprae [1]): 28.7%; Activity (Mycobacterium leprae [2]): 37%

For `CCC1(N2C(=O)c3ccccc3C2=O)C(=O)NC(=O)N(c2ccccc2)C1=O` (stereo not drawn), which viability at 0.5 µM [3] is on record?
The viability at 0.5 µM was 87%.

What about the viability at 5 µM [4] of the same compound?
Its viability at 5 µM is 80%.

And the inhibition at 5 µM (Monocyte [5])?
The inhibition at 5 µM was 88%.

And the inhibition at 25 µM (Monocyte [6])?
Its inhibition at 25 µM is 100%.

What about the inhibition at 50 µM (Monocyte [7]) of the same compound?
The inhibition at 50 µM was 100%.

And the inhibition at 0.5 µM (Monocyte [8])?
The inhibition at 0.5 µM was 12%.

What about the viability at 25 µM [9] of the same compound?
The viability at 25 µM was 73%.

And the viability at 50 µM [10]?
Its viability at 50 µM is 68%.

Which results are given for `COc1ccc(S(=O)(=O)c2ccc(N)cc2)cc1`?
Time (Mycobacterium leprae [11]): <10 days; MIC [12]: > 500 µg/mL; MIC [13]: 256 µg/mL (≈ 972 µM)

Which results are given for `Nc1ccc(S(=O)(=O)c2ccc(O)cc2)cc1`?
Time (Mycobacterium leprae [11]): <10 days; MIC [12]: 2010 µg/mL (≈ 8050 µM); MIC [13]: 12 µg/mL (≈ 48.1 µM)

For `O=C1c2ccccc2C(=O)N1c1cnc(O)nc1O`, which inhibition at 5 µM (Monocyte [5]) is on record?
Its inhibition at 5 µM is < 10%.

What about the inhibition at 25 µM (Monocyte [6]) of the same compound?
The inhibition at 25 µM was < 10%.

And the inhibition at 50 µM (Monocyte [7])?
The inhibition at 50 µM was < 10%.

What about the viability at 50 µM [10] of the same compound?
The viability at 50 µM was 91%.

Which results are given for `CCC(C)N1CCN(c2cc(O)c3nc4c5c6c7c(C)c(O)c5c(=O)c(c-4oc3c2)NC(=O)/C(C)=C\C=C\[C@H](C)[C@H](O)[C@@H](C)[C@@H](O)[C@@H](C)[C@H](OC(C)=O)[C@H](C)[C@@H](OC)/C=C/O[C@@](C)(O7)C6=O)CC1` (stereo in doubt; form 1)?
Activity (Mycobacterium leprae [14]): 0 pg; Activity (Mycobacterium leprae [15]): 233 pg; Activity (Mycobacterium leprae [16]): 0.84 pmol; Activity (Mycobacterium leprae [17]): 0 pg; Activity (Mycobacterium leprae [18]): 235 pg; Activity (Mycobacterium leprae [19]): 1.18 pmol; Activity (Mycobacterium leprae [20]): 279 pg; Activity (Mycobacterium leprae [21]): 0 pmol; Activity (Mycobacterium leprae [22]): 0.92 pmol; Activity (Mycobacterium leprae [23]): 0 pmol; Activity (Mycobacterium leprae [24]): 0 pg; Activity (Mycobacterium leprae [25]): 0 pg; Activity (Mycobacterium leprae [26]): 335 pg; Activity (Mycobacterium leprae [27]): 0 pmol; Activity (Mycobacterium leprae [28]): 0 pmol; Activity (Mycobacterium leprae [29]): 0.76 pmol
